Assay results: patent US4004029A, “Compositions and method for treating epilepsy and convulsions” (The Upjohn Company, priority 1975, dated 1977)

Assays:
in vivo = details: mouse, ip
[1] = test system: electrically induced afterdischarge; assay: Depression of electrically induced afterdischarges in the cat; type: in vivo, cat (mongrel cats of either sex); design: duration of afterdischarge: unit not given here; details: for duration of afterdischarge: intravenous
Description: N. Strow and C. L. Mitchell, Electroenceph. […] Mongrel cats of either sex weighing 1.5-3.0 kg. are anesthetized with halothane. Two pair of stainless steel screw electrodes are placed bilaterally in the skull for stimulation and recording. The cats are paralyzed with decamethonium, artifically respired and after ninety minutes allowed to blow off the halothane. […] is elicited by electrical stimulation across one pair of electrodes (5 second train of 1 millisecond pulses at 50 pulses per second at 5.0-10 milliamps). Duration of discharge is recorded from the second electrode pair. Two groups of controls are taken before test drug administration and duration of […] measured after each dose of test drug.

[2] = test system: seizures induced by electroshock; assay: Protection against seizures induced by electroshock in rats; type: in vivo, rats (Sprague Dawley male albino); details: for ED50: Rattus norvegicus, ip, 150 milliamps
Description: After about thirty minutes, the mice are shocked via ear clip electrodes, with a 60-cycle electrical current for 0.2 second, using a current intensity of 25 milliamps. The number of mice protected against tonic extensor seizures is used as a quantal response to calculate the Ed50, by the method of Spearman and […] (see D. J. Finney, "Statistical Methodology in Biological Assay", Hofner Publishing Co., New York, N.Y. 1952, page 524). For control purposes, a group of six mice is similarly treated with diphenylhydantoin and shocked. […] Protection against seizures induced by electroshock is also shown in rats (Sprague Dawley male albino rats weighting 150 to 300 grams each). The testing procedure is identical to that used in Example 9 supra. except that the electroshock current intensity is increased from 25 to 150 milliamps to accommodate this larger species.

[3] = test system: electroshock-induced seizures (tonic extensor seizures); assay: Protection against electroshock-induced seizures in mice; type: in vivo, mice (Cartworth farms, male albino); details: for ED50: 25 milliamps
Description: Med. Chem. 8, 5-8, (1965). […] […] The number of mice protected against tonic extensor seizures is used as a quantal response to calculate the Ed50, by the method of Spearman and […] (see D. J. Finney, "Statistical Methodology in Biological Assay", Hofner Publishing Co., New York, N.Y. 1952, page 524). For control purposes, a group of six mice is similarly treated with diphenylhydantoin and shocked.

[4] = Mus musculus, ip, 0.5 h, absorption time 0.5 (Minutes)

Compound: Cc1cccc(C(=O)Nc2c(C)cccc2C)c1N [N'-(2,6-dimethylphenyl)-2-amino-3-methylbenzamide]
- LD50 (in vivo): 297 mg/kg
- duration of afterdischarge ([1]; 2.5 mg./kg. total dose): 31
- duration of afterdischarge ([1]; 5.0 mg./kg. total dose): 27
- duration of afterdischarge ([1]; 10.0 mg./kg. total dose): 4
- duration of afterdischarge ([1]; 20.0 mg./kg. total dose): 2
- Relative Potency (shortening of afterdischarge) ([1]; relative to diphenylhydantoin on a milligram basis): 1.42
- ED50 ([2]; 0.5 h, absorption time 30 min): 4.5 mg/kg
- ED50 ([2]; 1 h, absorption time 60 min): 2.5 mg/kg
- ED50 ([2]; 4 h, absorption time 240 min): 4.5 mg/kg
- ED50 ([2]; 8 h, absorption time 480 min): 7.1 mg/kg
- anticonvulsive potency compared with diphenylhydantoin ([2]; electroshock, milligram basis): more potent on a milligram basis than diphenylhydantoin
- ED50 ([3]; IP, absorption time 0.5 (Minutes), 0.5 min): 5.6 mg/kg
- ED50 [3, 4]: 7 mg/kg
- ED50 ([3]; Mus musculus, po, 1 min, absorption time 1 (Minutes)): 10 mg/kg
- ED50 ([3]; Mus musculus, po, 2 min, absorption time 2 (Minutes)): 10 mg/kg
- ED50 ([3]; Mus musculus, po, 4 min, absorption time 4 (Minutes)): 11 mg/kg
- ED50 ([3]; Mus musculus, po, 8 min, absorption time 8 (Minutes)): 32 mg/kg
- ED50 ([3]; Mus musculus, po, 16 min, absorption time 16 (Minutes)): 112 mg/kg
- ED50 ([3]; Mus musculus, po, 0.4 h, absorption time 24 (Minutes)): 178 mg/kg
- ED50 ([3]; Mus musculus, po, 0.5 h, absorption time 0.5 (Minutes)): 10 mg/kg
- duration of action ([3]; electroshock, Table I): long acting

Compound: O=C1NC(=O)C(c2ccccc2)(c2ccccc2)N1 [diphenylhydantoin, reference compound]
- duration of afterdischarge ([1]; 2.5 mg./kg. total dose): 30
- duration of afterdischarge ([1]; 5.0 mg./kg. total dose): 32
- duration of afterdischarge ([1]; 10.0 mg./kg. total dose): 9
- duration of afterdischarge ([1]; 20.0 mg./kg. total dose): 4
- ED50 ([2]; 0.5 h, absorption time 30 min): 8 mg/kg
- ED50 [3, 4]: 14 mg/kg
